Consider 63 molecules from a melting point compilation (Tetko et al.; mined from patent text by program, amines drawn as free bases though some values may be those of a salt).

A word on the melting point: it is the temperature of the solid-liquid transition.

Residues, ends and D or L forms follow the SMILES beside them.

`Cc1nnc2n1-c1sc(C#CCn3c(=O)c4c(ncn4C)n(C)c3=O)cc1C(c1ccccc1Cl)=NC2` showed a melting point of 277 to 280 °C. `CC(C)(C)c1cc(N(C(=O)CCC(=O)O)c2ccc(OC(=O)c3ccccc3)cc2)cc(C(C)(C)C)c1O` had a melting point of 131 to 132 °C.

Molecule `CCc1nc(N)nc(N)c1CCC(C)c1cccc(C(F)(F)F)c1` (stereo not drawn) registered a melting point of 93 to 96 °C. Molecule `c1ccc2[nH]c(-c3ccsc3)cc2c1` registered a melting point of 212 to 214 °C. Next, `COC(=O)c1cc([N+](=O)[O-])ccc1ON=C(C)c1ccccc1`: 108 to 110 °C; `Cc1cc(Cl)cc(Cl)c1S(=O)(=O)Nc1nc(CC(=O)N2CCOCC2)c(C)s1`: 186 to 187 °C; `CN1C(=O)C(C)(C)N=C(c2ccccc2F)c2cc([N+](=O)[O-])cc(Br)c21`: 228 °C. Consider `Cc1ccc(C)c(OCc2ccccc2C(=O)c2ccnn2C)c1`, for which the melting point was 88 to 89 °C. Next, `COc1cc(OC)nc(NC(=O)NS(=O)(=O)c2nccn2-c2ccccn2)n1`: 146 to 149 °C; `COC(=O)CC(=O)NC(N)Cc1ccccc1` (stereo not drawn): 98 to 102 °C; `CC(C)(C)NC(=O)N1Cc2c(-c3ccc(F)cc3)ncn2-c2ccccc21`: 241 to 244 °C. In the case of `Nc1nc2c(ncn2CC(CO)CCO)c(=O)[nH]1` (stereo not drawn) it was 235 °C; in that of `CC(c1ccccc1)(c1ccc(OC(=O)CCl)cc1)c1ccc(OC(=O)CCl)cc1`, 97 to 98 °C; in that of `O=[N+]([O-])c1ccc(CSSCc2ccc([N+](=O)[O-])cc2)cc1`, 126 °C. In the case of `CCc1ccc2c(c1)c(-c1ccccc1Cl)c(C(=O)O)c(=O)n2C` it was 200 to 201 °C; in that of `CCc1ccc(CCOc2ccc(C=C3SC(=O)NC3=O)cc2)nc1`, 166 to 167 °C; in that of `CC(C)Cn1c(=O)n(C)c(=O)c2c(Sc3ccc(N)cc3)c(Cc3cccc4ccccc34)sc21`, 177 to 178 °C. For `Cc1cc(-c2ccc(C(F)(F)F)cc2)nc(-c2cccc(-c3ccc(S(N)(=O)=O)s3)c2)n1`, the melting point is 225 °C. In the case of `COc1ccc(C=CC(=O)c2ccc(OC)c(CC=C(C)C)c2O)cc1` it was 97 to 97.5 °C. The molecule `CN1CCC(OC(=O)N2c3ccccc3NC(=O)c3ccccc32)CC1` yielded a melting point of 203 to 204 °C. Take `Cc1nnc2c(Cl)nc3ccccc3n12`: the melting point fell in the range of 215 to 222 °C. In the case of `Nc1ccc(-c2n[nH]c3c2Cc2ccccc2-3)cc1` it was 253 to 254 °C. Take `CC1(C)N=C(N)N=C(N)N1OCc1cccc2ccccc12`: the melting point lay within 170 to 171 °C. In the case of `O=[N+]([O-])c1cc(N2CCNCC2)ccc1S(=O)(=O)c1ccccc1` it was 180 to 182 °C; in that of `CCc1noc(C)c1-c1c(C(O)CN(C)C)c2ccccc2n1C` (stereo not drawn), 119 to 121 °C. The molecule `COc1ccc(-c2cc(C(=O)NCc3ccccn3)c(=O)n(C)n2)cc1` had a melting point of 122 to 123 °C.

Molecule `CCOC(=O)c1cnc2ccc(SC)cc2c1O` gave a melting point above 260 °C. Next, `CCC(O)CC(O)CC` (stereo not drawn): 60 to 65 °C; `COC(=O)C(Cc1cc(C)c(Oc2ccc(O)c(Cc3ccc(OC)nc3)c2)c(C)c1)NC(C)=O` (stereo not drawn): 186 to 188 °C. Regarding `CCCC1=C(C(=O)OCC)C(c2c(OC)ccc3ccccc23)c2c[nH]nc2N1` (stereo not drawn), the melting point was in the range of 188 to 191 °C.

For `CCN(C(=O)n1nc2c(Cl)c(Cl)c(Cl)c(Cl)c2n1)c1ccccc1`, the melting point was 157 °C. Regarding `CCOCC1(C)CCCOc2cc(C#Cc3ccc(C(=O)O)cc3)ccc21` (stereo not drawn), the melting point was 170 to 171 °C. In the case of `CC(=O)NC(C)C(=O)NC(C)C(=O)NC(CC(C)C)C(=O)O` (stereo not drawn) (Ac-Ala-Ala-Leu-OH; configuration not given here) it was 185 to 186 °C. The molecule `Cc1ccccc1OS(=O)(=O)c1ccc(N2CCN(C)C2=O)cc1` came in with a melting point of 157 to 158 °C.

In the case of `c1ccc(-c2cc3ccccc3s2)cc1`, the melting point was in the range of 171 to 172 °C. Molecule `O=c1oc(-c2ccc(OCc3cccnc3)cc2)cc(O)c1SCCc1ccccc1` yielded a melting point of 178 to 179 °C. Take `CC1(C)Cc2c(N)c(Cl)cc(C(=O)NC3CCN(CCCC4(C)OCCO4)CC3)c2O1`: the melting point was found to be 136 °C.

`COc1ccc(O)c(NC(=O)C(Br)c2ccccc2)c1` (stereo not drawn) showed a melting point of 145 to 147 °C.

Molecule `CCOC(=O)C(=O)NNC(=O)c1cc2cccc(N(C)S(=O)(=O)c3cccs3)c2[nH]1` gave a melting point of 133 to 134 °C.

The molecule `CCc1csc2nc(C(=O)OC)cn12` displayed a melting point of 147 to 149 °C. In the case of `Cc1cc(NC2=NCCN2C)n(C)n1` it was 128 to 130 °C. In the case of `Cc1cccc(-c2[nH]c(C(C)C)nc2-c2cccc(-c3ccoc3)c2)n1` it was 74 to 78 °C; in that of `C#Cc1ccc2c(c1)CC1SC(c3ccccc3)=NC21O` (stereo not drawn), 118 °C; in that of `C=C(C)C(=O)Oc1ccc(S(=O)(=O)NCCCC)cc1`, 59 to 60 °C.

In turn, `O=C(O)CCc1ccc2c(c1)Cc1ccccc1CO2` displayed a melting point of 181 to 183 °C. `COc1cc(C=C(C)C(=O)O)ccc1O` showed a melting point of 144 to 145 °C. `CCOC(=O)Cn1c(C(=O)NCc2nnc(C)n2-c2sc(CC)cc2C(=O)c2ccccc2)cc2ccccc21` came in with a melting point of 129 to 131 °C. `CCCC1=C(C(=O)OCC)C(c2ccoc2C)c2c[nH]nc2N1` (stereo not drawn) came in with a melting point of 123 to 125 °C. The molecule `O=C1NCCN1c1ccc(S(=O)(=O)Nc2ccccc2)cc1` returned a melting point of 262 to 264 °C.

For the molecule `CCC(O)(c1ccc(O)cc1)c1cccc(C(F)(F)F)c1` (stereo not drawn), the melting point was in the range of 102 to 103 °C. In turn, `CC(C)(Cc1cc2c(OCc3ccc4ccccc4n3)cccc2n1Cc1ccc(Cl)cc1)C(=O)O` registered a melting point of 158 to 160 °C. Next, `Cc1ccc(NC(=O)Nc2cccc(Oc3ccc4nc(COc5ccc(CC6SC(=O)NC6=O)cc5)n(C)c4c3)c2)cc1` (stereo not drawn): 173 to 175 °C; `Cc1c(C#N)c(=O)[nH]c(=O)n1Nc1c(Cl)cc(Cl)cc1Cl`: above 305 °C; `O=C(O)CCCOc1cccc2c1Cc1sc(SCCC(c3ccccc3)c3ccccc3)nc1-2`: 86 to 88 °C. In the case of `CON=C(C)CCCn1c(C)nc2c(N)nc3ccccc3c21` it was 158 to 161 °C. In turn, `CN(C)CCCCNC(=O)c1cccc(-c2nnc(CSCCOc3ccccc3)o2)c1` gave a melting point of 38 to 42 °C.

The molecule `COc1ccc(OC)c2c1COC2O` (stereo not drawn) displayed a melting point of 156 to 158 °C.

The molecule `COc1cc2sc(=O)n(C(C)=O)c2cc1OC` returned a melting point of 164 to 165 °C.

Molecule `COc1ccc(Oc2ccc(S(C)(=O)=O)cc2)cc1` came in with a melting point of 152 to 153 °C. In the case of `COCCNC(=O)c1cccc(-c2cccc3cc(Cc4cccc(C(F)(F)F)c4)sc23)c1F` it was 94 to 95 °C; in that of `Nc1ccc(C(Cc2ccccc2)C(=O)O)cc1` (stereo not drawn), 196 to 198 °C; in that of `Cn1cc(-c2ccccc2)c(=O)c(-c2cccc(CC3CCCCC3)c2)c1`, 147 to 148 °C. Next, `N#Cc1ccc(Cc2ccc(-c3ccc(C#N)cn3)o2)cc1`: 204 to 206 °C.
